Data reported in paper PMC11191095, “QSAR Reveals Decreased Lipophilicity of Polar Residues Determines the Selectivity of Antimicrobial Peptide Activity” (ACS Omega, 2024).
Where a SMILES comes first, the peptide text is derived from it.

Columns and labels:
Assay in all cases: microbe, parasite or virus in culture
[1] = tested on: S. aureus (MRSA) NCTC 13616; type: cell-based, Staphylococcus aureus; details: S. aureus (MRSA) NCTC 13616 (R)
How it was run: (§1)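 Peptides 128→2 μg/mL, 2-fold series; inoculum ~5 × 10^5 CFU/mL from overnight culture (OD600 0.01, mixed 1:1). MHB non-cation-adjusted for bacteria, RPMI 1640 + 2% glucose for fungi. 37 °C, 20 h, OD600. MIC50/MIC90 at 50%/90% inhibition; n ≥ 3.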

[2] = tested on: S. aureus (MRSA) USA300; type: cell-based, Staphylococcus aureus; details: S. aureus (MRSA) USA300 (R)
How it was run: as §1

[3] = tested on: S. aureus (MRSA) 1199B; type: cell-based, Staphylococcus aureus; details: S. aureus (MRSA) 1199B (R)
How it was run: as §1

[4] = tested on: S. aureus (MSSA) ATCC 9144; type: cell-based, Staphylococcus aureus; details: S. aureus (MSSA) ATCC 9144 (S)
How it was run: as §1

[5] = tested on: C. tropicalis NCPF 8760; type: cell-based; details: C. tropicalis NCPF 8760
How it was run: as §1

[6] = tested on: C. parapsilosis NCPF 3209; type: cell-based; details: C. parapsilosis NCPF 3209
How it was run: as §1

[7] = tested on: C. albicans NCPF 3281; type: cell-based; details: C. albicans NCPF 3281
How it was run: as §1

[8] = tested on: C. glabrata NCPF 8018; type: cell-based; details: C. glabrata NCPF 8018
How it was run: as §1

[9] = tested on: C. krusei NCPF 3876; type: cell-based; details: C. krusei NCPF 3876
How it was run: as §1

[10] = tested on: E. coli NCTC 12923; type: cell-based, Escherichia coli; details: E. coli NCTC 12923 (S)
How it was run: as §1

[11] = tested on: E. coli LEC001; type: cell-based, Escherichia coli; details: E. coli LEC001 (R)
How it was run: as §1

[12] = tested on: P. aeruginosa NCTC 13437; type: cell-based, Pseudomonas aeruginosa; details: P. aeruginosa NCTC 13437 (R)
How it was run: as §1

[13] = tested on: A. baumannii AYE; type: cell-based, Acinetobacter baumannii; details: A. baumannii AYE (R)
How it was run: as §1

[14] = tested on: A. baumannii ATCC 17978; type: cell-based, Acinetobacter baumannii; details: A. baumannii ATCC 17978 (S)
How it was run: as §1

[15] = tested on: K. pneumoniae M6; type: cell-based, Klebsiella pneumoniae; details: K. pneumoniae M6 (S)
How it was run: as §1

[16] = tested on: K. pneumoniae NCTC 13368; type: cell-based, Klebsiella pneumoniae; details: K. pneumoniae NCTC 13368 (R)
How it was run: as §1

[17] = MHB, 37 °C, 20 h, OD600, min. three biological repeats
[18] = 50% growth inhibition, RPMI 1640 + 2% glucose, 37 °C, 20 h
[19] = 90% growth inhibition, RPMI 1640 + 2% glucose, 37 °C, 20 h
[20] = MHB, ~5×10^5 CFU/mL, 37 °C, 20 h, OD600, min. three biological repeats

SMILES: CC[C@H](C)[C@H](NC(=O)[C@@H](N)Cc1c[nH]c2ccccc12)C(=O)N[C@@H](CCCCN)C(=O)N[C@@H](CO)C(=O)N[C@H](C(=O)N[C@@H](C)C(=O)N[C@@H](CCCCN)C(=O)N[C@@H](CCCCN)C(N)=O)[C@@H](C)O [Opis8a] (H-WIKSTAKK-NH2)
- Modal MIC [1, 17]: > 128 µg/mL
- Modal MIC ([1]; shown in µM): > 133.2 µM
- Modal MIC [2, 17]: > 128 µg/mL
- Modal MIC ([2]; shown in µM): > 133.2 µM
- Modal MIC [3, 17]: > 128 µg/mL
- Modal MIC ([3]; shown in µM): > 133.2 µM
- Modal MIC [4, 17]: > 128 µg/mL
- Modal MIC ([4]; shown in µM): > 133.2 µM
- Modal MIC50 [5, 18]: > 128 µg/mL
- Modal MIC90 [5, 19]: > 128 µg/mL
- Modal MIC50 ([5]; shown in µM): > 133.2 µM
- Modal MIC90 ([5]; shown in µM): > 133.2 µM
- Modal MIC50 [6, 18]: > 128 µg/mL
- Modal MIC90 [6, 19]: > 128 µg/mL
- Modal MIC50 ([6]; shown in µM): > 133.2 µM
- Modal MIC90 ([6]; shown in µM): > 133.2 µM
- Modal MIC50 [7, 18]: > 128 µg/mL
- Modal MIC90 [7, 19]: > 128 µg/mL
- Modal MIC50 ([7]; shown in µM): > 133.2 µM
- Modal MIC90 ([7]; shown in µM): > 133.2 µM
- Modal MIC50 [8, 18]: > 128 µg/mL
- Modal MIC90 [8, 19]: > 128 µg/mL
- Modal MIC50 ([8]; shown in µM): > 133.2 µM
- Modal MIC90 ([8]; shown in µM): > 133.2 µM
- Modal MIC50 [9, 18]: > 128 µg/mL
- Modal MIC90 [9, 19]: > 128 µg/mL
- Modal MIC50 ([9]; shown in µM): > 133.2 µM
- Modal MIC90 ([9]; shown in µM): > 133.2 µM
- Modal MIC [10, 20]: > 128 µg/mL
- Modal MIC ([10]; shown in µM): > 133.2 µM
- Modal MIC [11, 17]: > 128 µg/mL
- Modal MIC ([11]; shown in µM): > 133.2 µM
- Modal MIC [12, 17]: > 128 µg/mL
- Modal MIC ([12]; shown in µM): > 133.2 µM
- Modal MIC [13, 17]: > 128 µg/mL
- Modal MIC ([13]; shown in µM): > 133.2 µM
- Modal MIC [14, 17]: > 128 µg/mL
- Modal MIC ([14]; shown in µM): > 133.2 µM
- Modal MIC [15, 17]: > 128 µg/mL
- Modal MIC ([15]; shown in µM): > 133.2 µM
- Modal MIC [16, 17]: > 128 µg/mL
- Modal MIC ([16]; shown in µM): > 133.2 µM

SMILES: CC[C@H](C)[C@H](NC(=O)CNC(=O)[C@@H](N)CCCNC(=N)N)C(=O)N[C@@H](CCCNC(=N)N)C(=O)NCC(=O)N[C@@H](Cc1ccc(O)cc1)C(=O)N[C@@H](CCCCN)C(=O)NCC(=O)NCC(=O)N[C@@H](Cc1ccc(O)cc1)C(=O)N[C@@H](CS)C(=O)N[C@H](C(=O)NCC(=O)N[C@@H](CCCNC(=N)N)C(=O)N[C@@H](Cc1ccccc1)C(=O)N[C@@H](CCCCN)C(=O)N[C@@H](CCC(N)=O)C(=O)N[C@H](C(=O)N[C@@H](CS)C(=O)N[C@@H](CCCCN)C(=O)N[C@@H](CS)C(=O)N[C@@H](Cc1ccc(O)cc1)C(=O)O)[C@@H](C)O)[C@@H](C)O [OmDefB] (H-RGIRGYKGGYCTGRFKQTCKCY-OH; N-terminus and C-terminus assumed)
- Modal MIC [1, 17]: > 128 µg/mL
- Modal MIC ([1]; shown in µM): > 49.9 µM
- Modal MIC [2, 17]: > 128 µg/mL
- Modal MIC ([2]; shown in µM): > 49.9 µM
- Modal MIC [3, 17]: > 128 µg/mL
- Modal MIC ([3]; shown in µM): > 49.9 µM
- Modal MIC [4, 17]: > 128 µg/mL
- Modal MIC ([4]; shown in µM): > 49.9 µM
- Modal MIC50 [5, 18]: > 128 µg/mL
- Modal MIC90 [5, 19]: > 128 µg/mL
- Modal MIC50 ([5]; shown in µM): > 49.9 µM
- Modal MIC90 ([5]; shown in µM): > 49.9 µM
- Modal MIC50 [6, 18]: > 128 µg/mL
- Modal MIC90 [6, 19]: > 128 µg/mL
- Modal MIC50 ([6]; shown in µM): > 49.9 µM
- Modal MIC90 ([6]; shown in µM): > 49.9 µM
- Modal MIC50 [7, 18]: > 128 µg/mL
- Modal MIC90 [7, 19]: > 128 µg/mL
- Modal MIC50 ([7]; shown in µM): > 49.9 µM
- Modal MIC90 ([7]; shown in µM): > 49.9 µM
- Modal MIC50 [8, 18]: > 128 µg/mL
- Modal MIC90 [8, 19]: > 128 µg/mL
- Modal MIC50 ([8]; shown in µM): > 49.9 µM
- Modal MIC90 ([8]; shown in µM): > 49.9 µM
- Modal MIC50 [9, 18]: > 128 µg/mL
- Modal MIC90 [9, 19]: > 128 µg/mL
- Modal MIC50 ([9]; shown in µM): > 49.9 µM
- Modal MIC90 ([9]; shown in µM): > 49.9 µM
- Modal MIC [10, 20]: > 128 µg/mL
- Modal MIC ([10]; shown in µM): > 49.9 µM
- Modal MIC [11, 17]: > 128 µg/mL
- Modal MIC ([11]; shown in µM): > 49.9 µM
- Modal MIC [12, 17]: > 128 µg/mL
- Modal MIC ([12]; shown in µM): > 49.9 µM
- Modal MIC [13, 17]: > 128 µg/mL
- Modal MIC ([13]; shown in µM): > 49.9 µM
- Modal MIC [14, 17]: > 128 µg/mL
- Modal MIC ([14]; shown in µM): > 49.9 µM
- Modal MIC [15, 17]: > 128 µg/mL
- Modal MIC ([15]; shown in µM): > 49.9 µM
- Modal MIC [16, 17]: > 128 µg/mL
- Modal MIC ([16]; shown in µM): > 49.9 µM
